From patent publication US11123314B2 (NATIONAL CANCER CENTER, priority 2017, dated 2021)

Columns and labels:
[1] = tested on: Miapaca2, Panc-1, CAPAN1, CAPAN2, ASPC-1, SNU-213, SNU-324, or BXPC-3 cells; assay: SRB assay, combined treatment with gossypol, phenformin and anti-cancer agent (triple combination); assay type: cell-based; conditions: 48 hours; compared with group given gossypol or phenformin alone; gossypol 2.5 or 5 μM, phenformin 100 μM, irinotecan 1 μM
Procedure: Specifically, Miapaca2, Panc-1, CAPAN1, CAPAN2, ASPC-1, SNU-213, SNU-324, or BXPC-3 cells were cultured. Each type of the cultured cells was treated with gossypol, phenformin, or irinotecan alone, or with a mixed drug thereof. […] As a control group, an untreated group with no drug treatment was used, and a relative cell proliferation level in each drug-treated group was expressed and calculated as a percentage as compared with the control group.

[2] = tested on: pancreatic cancer cell lines Miapaca-2, Panc-1, Aspc-1, SNU-410, SNU-324, Bxpc-3; assay: SRB assay, inhibitory effect of gossypol or phenformin alone on growth of pancreatic cancer cells; assay type: cell-based; conditions: for inhibitory effect on cell proliferation: 48 hours after treatment with the drug, applied alone; for proliferation of the cancer cells: gossypol or phenformin added alone to each type of the pancreatic cancer cells, SRB assay
Procedure: (§3) Specifically, each type of various pancreatic cancer cell lines, Miapaca-2, Panc-1, Aspc-1, SNU-410, SNU-324, and Bxpc-3 cells, was cultured, during which each type of cells was inoculated into a 96-well plate at a density of 5,000 to 20,000 cells/well depending on an amplification period of culture time. After inoculation, gossypol or phenformin was added to each well and incubated in a CO2 incubator for 24 hours. Then, the cells were fixed by adding 50% (w/v) cooled trichloroacetic acid (TCA) to each well so as to become a final concentration of 10%. The supernatant other than the fixed cells was removed and the plate was washed about five times with tap water and then air dried. After drying, 0.4% (w/v) sulforhodamine B buffer solution containing 1% acetic acid was added to each well, and the plate was left to stand at room temperature for 10 minutes so that the cells were stained. After staining the cells, the plate was washed 5 times with 1% acetic acid to remove unstained dye, and then air dried. The stained dye was immobilized with 10 mM trizma base, and then absorbance was measured at 515 nm using a plate reader.

[3] = tested on: normal epithelial cell line IMR90; assay: Annexin V-FITC/PI apoptosis detection by flow cytometry in normal cells; conditions: gossypol 10 μM, phenformin 100 μM, alone or mixed; 24, 48 and 72 hours
Procedure: First, the normal epithelial cell line IMR90 was cultured. Then, the cultured cells were treated with a single drug of gossypol 10 μM or phenformin 100 μM, or a mixed drug obtained by mixing them, and culture was performed for 24, 48, and 72 hours in total. The medium was removed from the cultured cells, and the cultured cells were washed twice with cold PBS. Centrifugation was performed at 1,400 rpm for 3 minutes, and then a binding buffer solution was added thereto at a concentration of 1×10^6 cells/mL. […] of the buffer solution was transferred to a 5-mL culture tube, and 5 μl of each of Annexin V-FITC and propidium iodide (PI) was added thereto. The tube was slowly vortexed to perform mixing, and then incubated for 15 minutes in a dark room at room temperature. After the incubation, a binding buffer solution (400 μl) was added thereto and a level of increase in cell death was checked by flow cytometry.

[4] = tested on: Miapaca2, Panc-1, or Aspc-1 cells; assay: Intracellular ATP level (ATP Colorimetric/Fluorometric Analysis Kit); assay type: cell-based; conditions: gossypol 5 μM, phenformin 500 μM, alone or mixed; compared with control group with no drug treatment
Procedure: Then, an intracellular ATP level was checked with the ATP Colorimetric/Fluorometric Analysis Kit (BioVision, Milpitas, Calif., USA) according to the protocol provided by the manufacturer. The cultured cells were divided into 1×10^6 cells and 100 μl of ATP assay buffer was added thereto to dissolve the cells. Then, centrifugation was performed at 15,000×g for 2 minutes at 4° C., to separate only the supernatant. 2 to 50 μl of the separated supernatant was transferred to a 96-well plate, and then an ATP assay buffer was added to a final volume of 50 μl per well. Thereafter, an ATP reaction mixture containing 44 μl of ATP assay buffer, 2 μl of ATP probe, 2 μl of ATP converter, and 2 μl of developer mixture was added to the 96-well plate at 50 μl per well and mixing was performed.

[5] = tested on: Miapaca2 pancreatic cancer cell line; assay: Pancreatic cancer mouse model (xenograft), tumor volume and weight; assay type: in vivo, Balb/c-nu mice; conditions: gossypol 40 mg/kg, phenformin 100 mg/kg, oral once a day, alone or combined; compared with solvent control
Procedure: (§1) First, 6- to 8-week-old Balb/c-nu mice (Central Lab. Animal, Highland Heights, Ky., USA) were prepared to make a pancreatic cancer mouse model. In addition, Miapaca2 pancreatic cancer cell line was cultured at 5.0×10^6 cells, and subcutaneously injected into the prepared mice with a 1-ml syringe. The mice were bred for 2 weeks, and divided into four groups in total, with each group containing 6 mice. The four groups were used as a solvent control group (10% DMSO, 40% PEG, 50% PBS), a group in which 40 mg/kg/100 μl of gossypol is administered alone, a group in which 100 mg/kg/100 μl of phenformin is administered alone, and a group in which gossypol+phenformin are administered in combination, respectively. To each mouse group was orally administered once a day the solvent or the drug, and the mice were bred in the same environment for a total of 61 days.
(§2) While breeding the mice, body weights and tumor sizes in each mouse group were checked every 3 days and averaged. A size of the initial tumor after injection of pancreatic cancer cells was determined using a caliper. A tumor volume was calculated using the following Equation 1.

[6] = tested on: Miapaca2, Panc-1, or Aspc-1 cells; conditions: applied alone at low drug concentration (gossypol 5 or 10 μM; phenformin 100 or 500 μM)
Procedure: as §3
Specifically, Miapaca2, Panc-1, or Aspc-1 cells were cultured. Each type of the cultured cells was treated with a mixed drug obtained by mixing gossypol 5 μM and phenformin 100 μM, or gossypol 10 μM and phenformin 500 μM, and cultured in the same manner.

[7] = Pancreatic cancer mouse model, body weight; conditions: oral once a day, 61 days; compared among experimental groups
Procedure: as §1, §2

Structure (SMILES) | proliferation level in pancreatic cancer cells [1] | inhibitory effect on cell proliferation [2] | proliferation of the cancer cells [2] | cell death over time in IMR90 normal cells [3] | intracellular ATP level [4] | level of increase in tumor volume [5] | inhibition of cell growth [6] | body weights [7]
CCc1c2c(nc3ccc(OC(=O)N4CCC(N5CCCCC5)CC4)cc13)-c1cc3c(c(=O)n1C2)COC(=O)[C@]3(O)CC [irinotecan] | significantly decreased | – | – | – | – | – | – | –
[H]/N=C(/N)N/C(=N/[H])NCCc1ccccc1 [phenformin] | – | complete inhibitory effect on cell proliferation | significantly inhibited | significant increase in cell death is not exhibited | decreased | somewhat decreased | significant inhibition of cell growth was not exhibited | –
Cc1cc2c(C(C)C)c(O)c(O)c(C=O)c2c(O)c1-c1c(C)cc2c(C(C)C)c(O)c(O)c(C=O)c2c1O [gossypol] | – | complete inhibitory effect on cell proliferation | significantly inhibited | significant increase in cell death is not exhibited | decreased | somewhat decreased | significant inhibition of cell growth was not exhibited | not significantly different
